From the NIST ThermoML archive (doi:10.1016/j.jct.2010.06.009)

Experiment: activity coefficient (dimensionless); of the first substance listed, at infinite dilution; xn = mol fraction of the nth substance listed
Conditions: 101 kPa, Liquid, Chromatography, x1 = 0

C=CCCCC [hex-1-ene] + CCCC[n+]1ccccc1.O=S(=O)([N-]S(=O)(=O)C(F)(F)F)C(F)(F)F
Conditions	activity coefficient
302.3 K	8.87
312.9 K	7.45
323 K	6.38
332.8 K	5.29
343 K	4.33
352.8 K	3.71

C=CCCCC [hex-1-ene] + CC[n+]1ccccc1.O=S(=O)([N-]S(=O)(=O)C(F)(F)F)C(F)(F)F
Conditions	activity coefficient
302.6 K	11.5
313.1 K	9.42
322.9 K	7.86
332.8 K	6.54
342.9 K	5.34
353 K	4.4

CCCCCC [hexane] + CCCCC[n+]1ccccc1.O=S(=O)([N-]S(=O)(=O)C(F)(F)F)C(F)(F)F
Conditions	activity coefficient
303.3 K	9.78
312.7 K	8.36
323.4 K	7
333.3 K	5.98
343.3 K	5.01
353.3 K	4.25

CCCCCC [hexane] + CCCC[n+]1ccccc1.O=S(=O)([N-]S(=O)(=O)C(F)(F)F)C(F)(F)F
Conditions	activity coefficient
302.8 K	11.9
312.4 K	10.4
323.2 K	8.58
332.8 K	7.59
343.3 K	5.85
353.4 K	4.75

CCCCCC [hexane] + CC[n+]1ccccc1.O=S(=O)([N-]S(=O)(=O)C(F)(F)F)C(F)(F)F
Conditions	activity coefficient
302.8 K	13.8
313.3 K	10.8
323.1 K	8.59
333 K	6.86
342.9 K	5.46
353 K	4.38

CO [methanol] + CCCCC[n+]1ccccc1.O=S(=O)([N-]S(=O)(=O)C(F)(F)F)C(F)(F)F
Conditions	activity coefficient
302.8 K	1.62
313.5 K	1.46
323.4 K	1.31
333.3 K	1.18
343.2 K	1.06
353.4 K	0.94

CO [methanol] + CCCC[n+]1ccccc1.O=S(=O)([N-]S(=O)(=O)C(F)(F)F)C(F)(F)F
Conditions	activity coefficient
302.7 K	2
313.4 K	1.73
323.1 K	1.56
333.1 K	1.39
343.1 K	1.25
353.3 K	1.12

CO [methanol] + CC[n+]1ccccc1.O=S(=O)([N-]S(=O)(=O)C(F)(F)F)C(F)(F)F
Conditions	activity coefficient
302.5 K	1.86
313.1 K	1.69
323 K	1.53
332.9 K	1.38
342.9 K	1.26
353 K	1.13

CC1CCCCC1 [methylcyclohexane] + CCCCC[n+]1ccccc1.O=S(=O)([N-]S(=O)(=O)C(F)(F)F)C(F)(F)F
Conditions	activity coefficient
303.1 K	10.2
312.7 K	9.39
323.4 K	8.48
333.3 K	7.64
343.3 K	6.84
353.3 K	6.08

CC1CCCCC1 [methylcyclohexane] + CCCC[n+]1ccccc1.O=S(=O)([N-]S(=O)(=O)C(F)(F)F)C(F)(F)F
Conditions	activity coefficient
302.8 K	14.1
312.4 K	12.7
323.2 K	11.6
333.1 K	10.1
343.3 K	8.44
353.4 K	7.2

CC1CCCCC1 [methylcyclohexane] + CC[n+]1ccccc1.O=S(=O)([N-]S(=O)(=O)C(F)(F)F)C(F)(F)F
Conditions	activity coefficient
302.8 K	17.8
313.3 K	15
323.1 K	12.8
333 K	10.8
342.9 K	9.01
353 K	7.49

CCCCCCCCC [nonane] + CCCCC[n+]1ccccc1.O=S(=O)([N-]S(=O)(=O)C(F)(F)F)C(F)(F)F
Conditions	activity coefficient
303.2 K	36
312.7 K	33.3
323.4 K	30.2
333.3 K	27.3
343.3 K	24.2
353.3 K	21.4

CCCCCCCCC [nonane] + CCCC[n+]1ccccc1.O=S(=O)([N-]S(=O)(=O)C(F)(F)F)C(F)(F)F
Conditions	activity coefficient
303.1 K	52.3
312.6 K	50
323.3 K	45.6
333.3 K	38.6
343.3 K	33.3
353.4 K	28.1

CCCCCCCCC [nonane] + CC[n+]1ccccc1.O=S(=O)([N-]S(=O)(=O)C(F)(F)F)C(F)(F)F
Conditions	activity coefficient
302.8 K	86.1
313.3 K	74.3
323.1 K	63.4
333 K	51.7
342.9 K	42.2
353 K	33.8

C=CCCCCCC [oct-1-ene] + CCCCC[n+]1ccccc1.O=S(=O)([N-]S(=O)(=O)C(F)(F)F)C(F)(F)F
Conditions	activity coefficient
303 K	14.2
312.6 K	13.2
322.6 K	12.2
333.4 K	11
343.4 K	9.95
353.4 K	9.08

C=CCCCCCC [oct-1-ene] + CCCC[n+]1ccccc1.O=S(=O)([N-]S(=O)(=O)C(F)(F)F)C(F)(F)F
Conditions	activity coefficient
302.5 K	22.3
313 K	19.7
323.2 K	18.4
332.8 K	15.7
343 K	13.6
352.9 K	11.9

C=CCCCCCC [oct-1-ene] + CC[n+]1ccccc1.O=S(=O)([N-]S(=O)(=O)C(F)(F)F)C(F)(F)F
Conditions	activity coefficient
302.6 K	36.6
313.2 K	31.5
323.2 K	27.2
332.8 K	23.7
342.9 K	19.8
353 K	16.7

CCCCCCCC [octane] + CCCCC[n+]1ccccc1.O=S(=O)([N-]S(=O)(=O)C(F)(F)F)C(F)(F)F
Conditions	activity coefficient
303.2 K	25
312.7 K	22.8
323.4 K	20.3
333.3 K	18
343.3 K	15.7
353.3 K	13.7

CCCCCCCC [octane] + CCCC[n+]1ccccc1.O=S(=O)([N-]S(=O)(=O)C(F)(F)F)C(F)(F)F
Conditions	activity coefficient
302.7 K	35.4
312.5 K	32.2
323.2 K	29
333.3 K	23.9
343.3 K	20.4
353.4 K	16.8

CCCCCCCC [octane] + CC[n+]1ccccc1.O=S(=O)([N-]S(=O)(=O)C(F)(F)F)C(F)(F)F
Conditions	activity coefficient
302.8 K	52.9
313.3 K	43.5
323.1 K	36
333 K	29.1
342.9 K	23.4
353 K	18.5

CCCCC [pentane] + CCCCC[n+]1ccccc1.O=S(=O)([N-]S(=O)(=O)C(F)(F)F)C(F)(F)F
Conditions	activity coefficient
303.3 K	5.03
312.7 K	4.17
323.4 K	3.42
333.3 K	2.89
343.3 K	2.41
353.3 K	2.07

CCCCC [pentane] + CCCC[n+]1ccccc1.O=S(=O)([N-]S(=O)(=O)C(F)(F)F)C(F)(F)F
Conditions	activity coefficient
302.8 K	5.66
312.4 K	4.83
323.2 K	3.92
333 K	3.44
343.4 K	2.66
353.4 K	2.24

CCCCC [pentane] + CC[n+]1ccccc1.O=S(=O)([N-]S(=O)(=O)C(F)(F)F)C(F)(F)F
Conditions	activity coefficient
302.7 K	5.79
313.3 K	4.5
323 K	3.59
333 K	2.92
342.9 K	2.36
352.9 K	1.95

CCCO [propan-1-ol] + CCCCC[n+]1ccccc1.O=S(=O)([N-]S(=O)(=O)C(F)(F)F)C(F)(F)F
Conditions	activity coefficient
302.8 K	2.53
313.6 K	2.23
323.4 K	2.02
333.3 K	1.84
343.3 K	1.65
353.3 K	1.49

CCCO [propan-1-ol] + CCCC[n+]1ccccc1.O=S(=O)([N-]S(=O)(=O)C(F)(F)F)C(F)(F)F
Conditions	activity coefficient
303.4 K	3.31
313.3 K	2.82
323.2 K	2.52
333.1 K	2.25
343.1 K	2.03
353 K	1.84

CCCO [propan-1-ol] + CC[n+]1ccccc1.O=S(=O)([N-]S(=O)(=O)C(F)(F)F)C(F)(F)F
Conditions	activity coefficient
302.5 K	3.56
313.1 K	3.18
323 K	2.85
332.9 K	2.57
342.9 K	2.29
353 K	2.06

Cc1ccccc1 [toluene] + CCCCC[n+]1ccccc1.O=S(=O)([N-]S(=O)(=O)C(F)(F)F)C(F)(F)F
Conditions	activity coefficient
303.1 K	1.28
312.8 K	1.3
323.3 K	1.33
333.3 K	1.34
343.3 K	1.36
353.5 K	1.36

Cc1ccccc1 [toluene] + CCCC[n+]1ccccc1.O=S(=O)([N-]S(=O)(=O)C(F)(F)F)C(F)(F)F
Conditions	activity coefficient
302.8 K	1.8
312.6 K	1.82
323.3 K	1.83
333.2 K	1.83
343.2 K	1.85
353.3 K	1.86

Cc1ccccc1 [toluene] + CC[n+]1ccccc1.O=S(=O)([N-]S(=O)(=O)C(F)(F)F)C(F)(F)F
Conditions	activity coefficient
303.6 K	2.08
313.1 K	2.09
323.2 K	2.1
333.2 K	2.11
343 K	2.12
353.3 K	2.13
